Results as given in US7556794B2, “Pendant fatty acid imaging agents” (Molecular Insight Pharmaceuticals, Inc., priority 2002, dated 2009).

Assay: Tissue distribution (radiometric analysis of excised organs) after tail vein injection of radiolabeled fatty acid analogs in rats
Type: in vivo, Sprague Dawley rats
Details: rat
Description: Pharmacokinetic characterization was accomplished by radiometric analysis of heart, blood, lung, kidney, liver and other tissue at various times following administration of the 99mTc-labeled fatty acid analogs to rats. […] Six new compounds were evaluated at up to four time points each (5, 15, 60, and 120 minutes) with a minimum of three animals per time point. Non-anesthetized animals were injected with 20-50 μCi in 100 μl via the tail vein and sacrificed at increasing time points post injection. The organs were excised and counted in a gamma counter. Experiments were also conducted to compare the effects of injection media using 10% ethanol, 10% bovine serum albumin and 7% ursodeoxycholic acid on distribution.

Structure (SMILES): CC(CCCCCCCCCCCCc1ccc(I)cc1)CC(=O)O (centres unmarked) [BMIPP]
- Percent injected dose per gram, Blood (15-min post injection, blood): 1.30 ± 0.19 Percent injected dose per gram
- Percent injected dose per gram, Heart (15-min post injection, heart): 4.60 ± 0.63 Percent injected dose per gram
- Percent injected dose per gram, Kidneys (15-min post injection, kidneys): 4.09 ± 0.82 Percent injected dose per gram
- Percent injected dose per gram, Liver (15-min post injection, liver): 2.97 ± 0.56 Percent injected dose per gram
- Percent injected dose per gram, Lung (15-min post injection, lung): 1.83 ± 0.22 Percent injected dose per gram
- heart-to-blood ratio (at 15 minutes): 2.2
- heart-to-blood ratio (at 60 minutes): 1.6
- blood retention / clearance (in words) (blood): slow blood clearance
- heart accumulation / extraction (in words) (heart): high extraction into the heart
- uptake in the heart (heart, at 15 minutes): 3.49 percent per organ
- uptake in the heart (heart, at 60 minutes): 1.62 percent per organ
- less heart uptake with ethanol injection media than with ursodeoxycholic acid (heart, 10% ethanol versus 7% ursodeoxycholic acid injection media): ~75%
- liver activity (liver, end of the 45 minute period (60 minutes)): 7.2 percent per organ
- liver activity (liver, start of the 45 minute period (15 minutes)): 19.7 percent per organ
